# Results as given in PubChem BioAssay AID2060511 (Molecular Pharmacology Branch, DTP, NCI, 2025).
# pIC50: −log10 of the molar value.
# System: 422866-222-R5-J1-PDC spheroids with HUVEC/MSC, viability
# Experiment: Anticancer human tumor 422866-222-R5-J1-PDC patient-derived pancreatic adenocarcinoma cell line growth inhibition [GQUAD]
# Details: for pIC50: curve of first compound; for viability, T/C: stronger effect = lower value
# How it was run: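 Viability of tumor cells grown as complex spheroids with endothelial and stromal cells, exposed to drug combinations. Top concentration at or near clinical Cmax (else 10 microM), diluted in half-log increments.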
# [1] = second compound 0.0316 µM, first compound 0.0316 µM
# [2] = second compound 0.0316 µM, first compound 0.1 µM
# [3] = second compound 0.0316 µM, first compound 0.316 µM
# [4] = second compound 0.0316 µM, first compound 1 µM
# [5] = second compound 0.0316 µM, first compound 3.16 µM
# [6] = second compound 0.0316 µM, first compound 10 µM
# [7] = second compound 0.1 µM, first compound 0.0316 µM
# [8] = second compound 0.1 µM, first compound 0.1 µM
# [9] = second compound 0.1 µM, first compound 0.316 µM
# [10] = second compound 0.1 µM, first compound 1 µM
# [11] = second compound 0.1 µM, first compound 3.16 µM
# [12] = second compound 0.1 µM, first compound 10 µM
# [13] = second compound 0.316 µM, first compound 0.0316 µM
# [14] = second compound 0.316 µM, first compound 0.1 µM
# [15] = second compound 0.316 µM, first compound 0.316 µM
# [16] = second compound 0.316 µM, first compound 1 µM
# [17] = second compound 0.316 µM, first compound 3.16 µM
# [18] = second compound 0.316 µM, first compound 10 µM
# [19] = second compound 1 µM, first compound 0.0316 µM
# [20] = second compound 1 µM, first compound 0.1 µM
# [21] = second compound 1 µM, first compound 0.316 µM
# [22] = second compound 1 µM, first compound 1 µM
# [23] = second compound 1 µM, first compound 3.16 µM
# [24] = second compound 1 µM, first compound 10 µM
# [25] = second compound 3.16 µM, first compound 0.0316 µM
# [26] = second compound 3.16 µM, first compound 0.1 µM
# [27] = second compound 3.16 µM, first compound 0.316 µM
# [28] = second compound 3.16 µM, first compound 1 µM
# [29] = second compound 3.16 µM, first compound 3.16 µM
# [30] = second compound 3.16 µM, first compound 10 µM
# [31] = second compound 10 µM, first compound 0.0316 µM
# [32] = second compound 10 µM, first compound 0.1 µM
# [33] = second compound 10 µM, first compound 0.316 µM
# [34] = second compound 10 µM, first compound 1 µM
# [35] = second compound 10 µM, first compound 3.16 µM
# [36] = second compound 10 µM, first compound 10 µM
# 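Also: spheroids exposed to compounds for seven days before reading.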
# 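For viability, T/C in this document: percent viability relative to DMSO vehicle control taken as 100%.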
compound,measurement,setting,value
CC(C)n1c(=O)n(C)c2cnc3cc(F)c(-c4ccc(OCCCN5CCCCC5)nc4)cc3c21 + CN(C)c1ccc(Nc2c3ccc(NC(=O)CCN4CCCC4)cc3nc3cc(NC(=O)CCN4CCCC4)ccc23)cc1,pIC50,second compound 0.0316 µM,< 5.00
same,pIC50,second compound 0.1 µM,< 5.00
same,pIC50,second compound 0.316 µM,< 5.00
same,pIC50,second compound 1 µM,< 5.00
same,pIC50,second compound 3.16 µM,< 5.00
same,pIC50,second compound 10 µM,< 5.00
same,"viability, T/C",[1],99.8%
same,"viability, T/C",[2],99%
same,"viability, T/C",[3],93.5%
same,"viability, T/C",[4],96%
same,"viability, T/C",[5],103%
same,"viability, T/C",[6],67.1%
same,"viability, T/C",[7],100%
same,"viability, T/C",[8],78.5%
same,"viability, T/C",[9],101%
same,"viability, T/C",[10],90.5%
same,"viability, T/C",[11],90.7%
same,"viability, T/C",[12],70%
same,"viability, T/C",[13],103%
same,"viability, T/C",[14],95.4%
same,"viability, T/C",[15],92.4%
same,"viability, T/C",[16],81.2%
same,"viability, T/C",[17],88.8%
same,"viability, T/C",[18],70.2%
same,"viability, T/C",[19],87.2%
same,"viability, T/C",[20],92.5%
same,"viability, T/C",[21],87.9%
same,"viability, T/C",[22],98.6%
same,"viability, T/C",[23],83.8%
same,"viability, T/C",[24],55.1%
same,"viability, T/C",[25],82.8%
same,"viability, T/C",[26],80.1%
same,"viability, T/C",[27],86.8%
same,"viability, T/C",[28],88.9%
same,"viability, T/C",[29],81.6%
same,"viability, T/C",[30],61.6%
same,"viability, T/C",[31],73.8%
same,"viability, T/C",[32],80.9%
same,"viability, T/C",[33],80.4%
same,"viability, T/C",[34],64.3%
same,"viability, T/C",[35],68.5%
same,"viability, T/C",[36],51.7%
CC1COCCN1c1cc(C2(O)CC3CCC(C2)O3)c2cnn(-c3ccn[nH]3)c2n1 (stereo not drawn) + CN(C)c1ccc(Nc2c3ccc(NC(=O)CCN4CCCC4)cc3nc3cc(NC(=O)CCN4CCCC4)ccc23)cc1,pIC50,second compound 0.0316 µM,< 5.00
same,pIC50,second compound 0.1 µM,7.50
same,pIC50,second compound 0.316 µM,< 5.00
same,pIC50,second compound 1 µM,7.50
same,pIC50,second compound 3.16 µM,< 5.00
same,pIC50,second compound 10 µM,7.50
same,"viability, T/C",[1],65.6%
same,"viability, T/C",[2],52.2%
same,"viability, T/C",[3],55.3%
same,"viability, T/C",[4],90%
same,"viability, T/C",[5],87.1%
same,"viability, T/C",[6],92.5%
same,"viability, T/C",[7],79.8%
same,"viability, T/C",[8],49.7%
same,"viability, T/C",[9],45.7%
same,"viability, T/C",[10],108%
same,"viability, T/C",[11],91.4%
same,"viability, T/C",[12],90.4%
same,"viability, T/C",[13],78.8%
same,"viability, T/C",[14],45.1%
same,"viability, T/C",[15],64.5%
same,"viability, T/C",[16],90%
same,"viability, T/C",[17],94.1%
same,"viability, T/C",[18],88.4%
same,"viability, T/C",[19],61.9%
same,"viability, T/C",[20],49.6%
same,"viability, T/C",[21],39.4%
same,"viability, T/C",[22],88%
same,"viability, T/C",[23],89.1%
same,"viability, T/C",[24],83.8%
same,"viability, T/C",[25],57.4%
same,"viability, T/C",[26],51.8%
same,"viability, T/C",[27],50.2%
same,"viability, T/C",[28],87.3%
same,"viability, T/C",[29],95.5%
same,"viability, T/C",[30],83.9%
same,"viability, T/C",[31],59.8%
same,"viability, T/C",[32],47.3%
same,"viability, T/C",[33],43.1%
same,"viability, T/C",[34],93.1%
same,"viability, T/C",[35],88.3%
same,"viability, T/C",[36],88.5%
CC1COCCN1c1cc(C2(S(C)(=N)=O)CC2)nc(-c2ccnc3[nH]ccc23)n1 (stereo not drawn) + CN(C)c1ccc(Nc2c3ccc(NC(=O)CCN4CCCC4)cc3nc3cc(NC(=O)CCN4CCCC4)ccc23)cc1,pIC50,second compound 0.0316 µM,5.45
same,pIC50,second compound 0.1 µM,5.59
same,pIC50,second compound 0.316 µM,5.11
same,pIC50,second compound 1 µM,5.42
same,pIC50,second compound 3.16 µM,5.45
same,pIC50,second compound 10 µM,5.22
same,"viability, T/C",[1],97.6%
same,"viability, T/C",[2],99.8%
same,"viability, T/C",[3],97.3%
same,"viability, T/C",[4],88.5%
same,"viability, T/C",[5],51%
same,"viability, T/C",[6],41.1%
same,"viability, T/C",[7],102%
same,"viability, T/C",[8],98.3%
same,"viability, T/C",[9],102%
same,"viability, T/C",[10],78.9%
same,"viability, T/C",[11],44.6%
same,"viability, T/C",[12],37.9%
same,"viability, T/C",[13],92.2%
same,"viability, T/C",[14],86.2%
same,"viability, T/C",[15],88.4%
same,"viability, T/C",[16],81%
same,"viability, T/C",[17],60.3%
same,"viability, T/C",[18],47.1%
same,"viability, T/C",[19],73.7%
same,"viability, T/C",[20],76.6%
same,"viability, T/C",[21],100%
same,"viability, T/C",[22],72.7%
same,"viability, T/C",[23],54.2%
same,"viability, T/C",[24],31.9%
same,"viability, T/C",[25],84.5%
same,"viability, T/C",[26],76.5%
same,"viability, T/C",[27],86%
same,"viability, T/C",[28],72%
same,"viability, T/C",[29],51.4%
same,"viability, T/C",[30],43.5%
same,"viability, T/C",[31],79.5%
same,"viability, T/C",[32],77%
same,"viability, T/C",[33],93%
same,"viability, T/C",[34],73.6%
same,"viability, T/C",[35],61.9%
same,"viability, T/C",[36],41.2%
COc1ccc([C@@H](O)c2cc(-c3ncnc4cc(N5CCOCC5)ccc34)c(F)cc2Cl)nn1 + CN(C)c1ccc(Nc2c3ccc(NC(=O)CCN4CCCC4)cc3nc3cc(NC(=O)CCN4CCCC4)ccc23)cc1,pIC50,second compound 0.0316 µM,5.55
same,pIC50,second compound 0.1 µM,5.65
same,pIC50,second compound 0.316 µM,5.63
same,pIC50,second compound 1 µM,5.69
same,pIC50,second compound 3.16 µM,5.74
same,pIC50,second compound 10 µM,6.06
same,"viability, T/C",[1],97.8%
same,"viability, T/C",[2],96.5%
same,"viability, T/C",[3],73.9%
same,"viability, T/C",[4],76.7%
same,"viability, T/C",[5],42.2%
same,"viability, T/C",[6],34.5%
same,"viability, T/C",[7],98.8%
same,"viability, T/C",[8],86.9%
same,"viability, T/C",[9],79.1%
same,"viability, T/C",[10],63.5%
same,"viability, T/C",[11],41.5%
same,"viability, T/C",[12],38.5%
same,"viability, T/C",[13],90.6%
same,"viability, T/C",[14],91.2%
same,"viability, T/C",[15],75%
same,"viability, T/C",[16],67.1%
same,"viability, T/C",[17],43.4%
same,"viability, T/C",[18],31.8%
same,"viability, T/C",[19],80.2%
same,"viability, T/C",[20],67.3%
same,"viability, T/C",[21],76%
same,"viability, T/C",[22],57.2%
same,"viability, T/C",[23],45.2%
same,"viability, T/C",[24],34.8%
same,"viability, T/C",[25],69.7%
same,"viability, T/C",[26],81.6%
same,"viability, T/C",[27],65.5%
same,"viability, T/C",[28],57.9%
same,"viability, T/C",[29],43.1%
same,"viability, T/C",[30],29.9%
same,"viability, T/C",[31],92.2%
same,"viability, T/C",[32],81.3%
same,"viability, T/C",[33],67.2%
same,"viability, T/C",[34],44.6%
same,"viability, T/C",[35],44%
same,"viability, T/C",[36],34.9%
